Results: patent publication US11274158B2, “Methods and compositions for treating inflammatory or autoimmune diseases or conditions using calcitonin receptor activators” (Flagship Pioneering Innovations V, Inc., priority 2018, dated 2022)

Tested on: human macrophages
Assay: Effect of calcitonin receptor agonism on cytokine (IL6) secretion in human macrophages, bead-based immunoassay
Assay type: cell-based
Details: human monocyte-derived macrophages, supernatant
Method: CD14+ monocytes were isolated from human PBMCs using negative magnetic bead selection (Stemcell Technologies) on day 0. Cells were cultured with M-CSF to differentiate monocytes to macrophages. On day 6, cells were treated with SUN-B-8155, a non-peptide calcitonin receptor agonist (Sigma-Aldrich), at concentrations 2 μM and 20 μM overnight. Supernatant was collected and bead-based immunoassays (Biolegend) were performed to detect changes in cytokine secretion.
Across multiple donors, secretion of the inflammatory cytokine, IL6, by macrophages was decreased after addition of small molecule agonist to calcitonin receptor, as shown in Table 13 below.

Fold change of IL6 (Normalized to Macs + LPS with no compound treatment) (2 μM overnight): 0.92 | Fold change of IL6 (Normalized to Macs + LPS with no compound treatment) (20 μM overnight): 0.09
SMILES: CC(=Nc1ccccc1N)c1c(C)cc(=O)n(O)c1O [SUN-B-8155]
